Experimental data from US7879829B2, “19-nor-vitamin D analogs with 1,2-dihydrofuran ring” (Wisconsin Alumni Research Foundation, priority 2008, dated 2011).
“Also recorded” adds a separate entry of the source. Like-named read-outs stand apart in the source and are kept apart here.

What was measured:
HL-60 cells = test: HL-60 differentiation (nitro blue tetrazolium reduction); type: cell-based, human; conditions: for EC50: HL-60 cells, 4 days, read-out: EC50, HL60 differentiation
Procedure: The study drugs were dissolved in ethanol and the concentrations determined using UV spectrophotometry. Serial dilutions were prepared so that a range of drug concentrations could be tested without changing the final concentration of ethanol (≦0.2%) present in the cell cultures.
Human promyelocytic leukemia (HL60) cells were grown in RPMI-1640 medium containing 10% fetal bovine serum. The cells were incubated at 37° C. in the presence of 5% CO2.
HL60 cells were plated at 1.2×10^5 cells/ml. Eighteen hours after plating, cells in duplicate were treated with drug. Four days later, the cells were harvested and a nitro blue tetrazolium reduction assay was performed (Collins et al., 1979; J. Exp. Med. 149:969-974). The percentage of differentiated cells was determined by counting a total of 200 cells and recording the number that contained intracellular black-blue formazan deposits. Verification of differentiation to monocytic cells was determined by measuring phagocytic activity (data not shown).

[1] = test system: intestinal calcium transport; test: Intestinal calcium transport (everted gut sac method); type: in vivo, Sprague-Dawley rats; conditions: FIG. 5
Procedure: (§1) Intestinal Calcium Transport and Bone Calcium Mobilization Male, weanling Sprague-Dawley rats were placed on Diet 11 (0.47% Ca) diet +AEK oil for one week followed by Diet 11 (0.02% Ca) +AEK oil for 3 weeks. The rats were then switched to a diet containing 0.47% Ca for one week followed by two weeks on a diet containing 0.02% Ca. Dose administration began during the last week on 0.02% calcium diet. Four consecutive ip doses were given approximately 24 hours apart. Twenty-four hours after the last dose, blood was collected from the severed neck and the concentration of serum calcium determined as a measure of bone calcium mobilization. The first 10 cm of the intestine was also collected for intestinal calcium transport analysis using the everted gut sac method.

[2] = test system: 24-hydroxylase (24 Ohase) gene promoter in ROS 17/2.8 (bone) cells; test: In vitro transcription assay (24-hydroxylase promoter luciferase reporter); type: cell-based; conditions: FIG. 3; for EC50: ROS 17/2.8 cells, 24-hydroxylase promoter luciferase, 16 h, read-out: EC50, transcriptional activity in bone cells; for transcription of the 24-hydroxylase gene, times less potent than 1,25-(OH)2D3: relative to 1,25-(OH)2D3
Procedure: In vitro Transcription Assay
Transcription activity was measured in ROS 17/2.8 (bone) cells that were stably transfected with a 24-hydroxylase (24 Ohase) gene promoter upstream of a luciferase reporter gene (Arbour et al., 1998). Cells were given a range of doses. Sixteen hours after dosing the cells were harvested and luciferase activities were measured using a luminometer.
RLU=relative luciferase units.

[3] = test system: bone calcium mobilization; test: Bone calcium mobilization (serum calcium); type: in vivo, Sprague-Dawley rats; conditions: low calcium diet (0.02%), FIG. 4; for bone calcium mobilization activity: ip
Procedure: as §1

[4] = biological target: T1, full-length recombinant rat vitamin D receptor (Rattus norvegicus, UniProt P13053); test: Vitamin D receptor competitive binding with [3H]-1,25-(OH)2D3
T1 construct: Full-length recombinant rat receptor was expressed in E. coli; histidine tag (C); made in house; host or cells: E. coli BL21 (DE3) Codon Plus RIL
T1 sequence (P13053 1-423): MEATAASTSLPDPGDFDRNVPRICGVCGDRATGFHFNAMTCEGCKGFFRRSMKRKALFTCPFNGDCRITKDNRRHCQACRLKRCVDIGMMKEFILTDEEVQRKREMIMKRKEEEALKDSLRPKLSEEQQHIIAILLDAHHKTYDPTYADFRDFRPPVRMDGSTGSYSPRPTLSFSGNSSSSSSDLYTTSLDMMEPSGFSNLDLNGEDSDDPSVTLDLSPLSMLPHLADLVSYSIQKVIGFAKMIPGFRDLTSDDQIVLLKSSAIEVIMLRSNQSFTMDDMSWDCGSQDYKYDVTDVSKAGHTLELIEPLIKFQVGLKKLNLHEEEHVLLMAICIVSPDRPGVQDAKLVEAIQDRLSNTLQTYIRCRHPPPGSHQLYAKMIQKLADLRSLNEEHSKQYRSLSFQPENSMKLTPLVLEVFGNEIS
Text: Vitamin D Receptor Binding
Full-length recombinant rat receptor was expressed in E. coli BL2 1 (DE3) Codon Plus RIL cells and purified to homogeneity using two different column chromatography systems. The first system was a nickel affinity resin that utilizes the C-terminal histidine tag on this protein. The protein that was eluted from this resin was further purified using ion exchange chromatography (S-Sepharose Fast Flow). Aliquots of the purified protein were quick frozen in liquid nitrogen and stored at −80° C. until use. For use in binding assays, the protein was diluted in TEDK50 (50 mM Tris, 1.5 mM EDTA, pH 7.4, 5 mM DTT, 150 mM KCl) with 0.1% Chaps detergent. The receptor protein and ligand concentration were optimized such that no more than 20% of the added radiolabeled ligand was bound to the receptor.
Radiolabeled and unlabeled ligands were added to 100 mcl of the diluted protein at a final ethanol concentration of ≦10%, mixed and incubated overnight on ice to reach binding equilibrium. The following day, 100 mcl of hydroxylapatite slurry (50%) was added to each tube and mixed at 10-minute intervals for 30 minutes. The hydroxylapaptite was collected by centrifugation and then washed three times with Tris-EDTA buffer (50 mM Tris, 1.5 mM EDTA, pH 7.4) containing 0.5% Titron X-100. After the final wash, the pellets were transferred to scintillation vials containing 4 ml of Biosafe II scintillation cocktail, mixed and placed in a scintillation counter. Total binding was determined from the tubes containing only radiolabeled ligand.

EC50 (HL-60 cells; Homo sapiens, 96 h, FIG. 2) [nM]	Ki ([4]; full-length recombinant rat vitamin D receptor, FIG. 1, read-out: Ki, competition with [3H]-1,25-(OH)2D3 for binding to VDR) [nM]	VDR affinity, times less potent than 1,25-(OH)2D3 ([4]; relative to 1,25-(OH)2D3, FIG. 1) [times]	reduced VDR binding affinity ([4]; relative to native hormone)	SMILES	HL-60 differentiation, times less potent than 1,25-(OH)2D3 (HL-60 cells; relative to 1,25-(OH)2D3, FIG. 2) [times]	reduced cell differentiation potency (HL-60 cells; relative to native hormone) [log]	intestinal calcium transport activity ([1]; 780 pmol/day for 4 consecutive days, compared with 1,25-(OH)2D3 at 780 pmol/day)	intestinal calcium transport activity, overall compared with 1,25-(OH)2D3 ([1]; in vivo, no dose stated)	EC50 [2] [nM]	transcription of the 24-hydroxylase gene, times less potent than 1,25-(OH)2D3 [2]	transcription of the 24-hydroxylase gene, times less potent than 1,25-(OH)2D3 ([2]; listed as Ia) [times]	bone calcium mobilization activity ([3]; 7,020 pmol/day for 4 consecutive days)	EC50 (HL-60 cells; FIG. 2) [nM]	bone calcium mobilization activity ([3]; 260 pmol/day)	serum calcium levels ([3]; all the dosages tested)
30	0.6	~10	about 1 log	C[C@H](CCCC(C)(C)O)C1CCC2/C(=C/C=C3/C[C@@H](O)C4=CCO[C@@H]4C3)CCC[C@@]21C (stereo partly shown) [A-REV5, 1,2-dihydrofuran-25-hydroxy-19-nor-vitamin D3]	~10	1	almost the same activity as 1,25-(OH)2D3	promotes intestinal calcium transport in a dose dependent manner; also recorded: only slightly lower potency in vivo	8	about 40 times	40	no bone calcium mobilization activity; also recorded: did not result in any mobilization of bone calcium	–	–	–
–	–	–	–	C=C1/C(=C\C=C2/CCC[C@]3(C)[C@@H]([C@H](C)CCCC(C)(C)O)CC[C@@H]23)C[C@@H](O)C[C@@H]1O [1,25-(OH)2D3, 1α,25-dihydroxyvitamin D3, reference compound]	–	–	–	–	0.2	–	–	–	3	significant activity	increased serum calcium levels at all the dosages tested
